Measurements published in patent US12655106B2 (Eikonizo Therapeutics, Inc., priority 2021, dated 2026).

Columns and labels:
[1] = biological target: T1, Full length Human HDAC8 (Homo sapiens, UniProt Q9BY41); test: Caliper endpoint assay for HDAC enzymatic activity (HDAC8); assay type: biochemical; conditions: in vitro enzymatic, 30 min pre-incubation, 1 μM substrate peptide
T1 construct: Full length Human HDAC8; HIS (N); host or cells: baculovirus expression system
T1 sequence (Q9BY41 1-377): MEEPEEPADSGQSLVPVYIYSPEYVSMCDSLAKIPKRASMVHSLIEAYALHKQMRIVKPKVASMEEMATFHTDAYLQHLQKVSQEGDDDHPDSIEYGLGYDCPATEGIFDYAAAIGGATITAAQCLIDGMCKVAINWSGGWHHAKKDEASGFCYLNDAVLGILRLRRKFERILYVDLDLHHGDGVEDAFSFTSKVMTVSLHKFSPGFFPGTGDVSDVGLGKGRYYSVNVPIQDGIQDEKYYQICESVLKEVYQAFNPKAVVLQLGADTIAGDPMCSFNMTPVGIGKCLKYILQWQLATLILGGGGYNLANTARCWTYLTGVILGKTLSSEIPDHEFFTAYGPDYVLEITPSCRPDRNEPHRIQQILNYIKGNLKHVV

[2] = biological target: T2, Full length Human HDAC6 (Homo sapiens, UniProt Q9UBN7); test: Caliper endpoint assay for HDAC enzymatic activity (HDAC6); assay type: biochemical; conditions: for IC50: in vitro enzymatic, Caliper endpoint assay, 30 min pre-incubation, 1 μM substrate peptide; for Selectivity (6 v 8): ratio of HDAC8 IC50/HDAC6 IC50
T2 construct: Full length Human HDAC6; FLAG (C); host or cells: baculovirus expression system
T2 sequence (Q9UBN7 1-1215): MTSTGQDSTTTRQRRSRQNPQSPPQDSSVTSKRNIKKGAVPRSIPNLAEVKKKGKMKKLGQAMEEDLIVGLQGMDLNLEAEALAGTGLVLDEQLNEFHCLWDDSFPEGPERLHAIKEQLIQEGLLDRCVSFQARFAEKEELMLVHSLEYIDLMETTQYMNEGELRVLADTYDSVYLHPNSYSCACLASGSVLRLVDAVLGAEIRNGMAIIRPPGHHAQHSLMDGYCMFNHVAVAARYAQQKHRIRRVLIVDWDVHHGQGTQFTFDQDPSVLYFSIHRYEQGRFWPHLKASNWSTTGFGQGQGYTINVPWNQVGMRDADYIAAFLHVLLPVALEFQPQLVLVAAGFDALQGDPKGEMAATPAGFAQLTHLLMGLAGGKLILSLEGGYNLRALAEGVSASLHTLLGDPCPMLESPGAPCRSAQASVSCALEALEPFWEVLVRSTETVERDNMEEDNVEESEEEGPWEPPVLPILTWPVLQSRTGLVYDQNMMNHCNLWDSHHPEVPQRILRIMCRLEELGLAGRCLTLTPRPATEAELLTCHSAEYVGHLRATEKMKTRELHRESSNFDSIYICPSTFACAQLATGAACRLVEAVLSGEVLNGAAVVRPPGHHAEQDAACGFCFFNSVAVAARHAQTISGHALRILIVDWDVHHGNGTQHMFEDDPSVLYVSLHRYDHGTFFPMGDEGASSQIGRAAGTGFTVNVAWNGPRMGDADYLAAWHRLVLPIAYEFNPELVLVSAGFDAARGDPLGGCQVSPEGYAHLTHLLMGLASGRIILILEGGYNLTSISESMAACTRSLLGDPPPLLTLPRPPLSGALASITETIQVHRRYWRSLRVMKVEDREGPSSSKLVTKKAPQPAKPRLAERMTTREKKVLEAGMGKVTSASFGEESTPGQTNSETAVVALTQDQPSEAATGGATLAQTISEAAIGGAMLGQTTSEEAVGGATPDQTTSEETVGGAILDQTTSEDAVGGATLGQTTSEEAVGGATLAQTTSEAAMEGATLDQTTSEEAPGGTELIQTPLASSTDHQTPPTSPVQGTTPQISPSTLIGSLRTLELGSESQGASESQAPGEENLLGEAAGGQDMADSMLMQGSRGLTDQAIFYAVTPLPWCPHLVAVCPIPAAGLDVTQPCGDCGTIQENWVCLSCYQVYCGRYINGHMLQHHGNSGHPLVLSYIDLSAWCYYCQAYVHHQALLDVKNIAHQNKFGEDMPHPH

| Compound | IC50 [1] [nM] | IC50 [2] [nM] | Selectivity (6 v 8) [2] |
| --- | --- | --- | --- |
| O=C(NO)c1cc(F)c2c(c1)CCN([C@@H]1CCOC3(C1)CN(C1CC1)C3)C2 (single isomer, unassigned) [Compound 449] | 10000 to 100000 | 1000 to 10000 | III (III: >10-100) |
| Cc1cc2c(cc1C(=O)NO)CCN(C1CC3(CCCCC3)C1)C2 | 10000 to 100000 | > 100000 | V (V: >1000) |
| O=C(NO)c1cc(F)c2c(c1)CCN([C@H]1CCC3(CCCCC3)C1)C2 (single isomer, unassigned) [Compound 109] | 10000 to 100000 | 1 to 100 |  |
| NC12CC(CN3CCc4cc(C(=O)NO)cc(F)c4C3)(C1)C2 [Compound 486, 2-[(3-amino-1-bicyclo[1.1.1]pentanyl)methyl]-8-fluoro-3,4-dihydro-1H-isoquinoline-6-carbohydroxamic acid] | 10000 to 100000 | 1 to 100 | IV (IV: >100-1000) |
| O=C(NO)c1cc(F)c2c(c1)CCN(C1CC[C@@]13CCCO3)C2 (single isomer, unassigned) [Compound 319] | 1000 to 10000 | 1 to 100 | IV (IV: >100-1000) |
| CN1CCC[C@@]2(CC[C@@H]2N2CCc3cc(C(=O)NO)cc(F)c3C2)C1 (single isomer, unassigned) [Compound 364] | 10000 to 100000 | 1 to 100 | IV (IV: >100-1000) |
| O=C(NO)c1cc(F)c2c(c1)CCN(C1CCC13CCC3)C2 (centres unmarked) [Compound 299, 8-fluoro-2-spiro[3.3]heptan-3-yl-3,4-dihydro-1H-isoquinoline-6-carbohydroxamic acid] | 10000 to 100000 | 1 to 100 | IV (IV: >100-1000) |
| O=C(NO)c1cc(F)c2c(c1)CCN(CC1C3CC1CN(C1CC1)C3)C2 (centres unmarked) [Compound 494, 2-[(3-cyclopropyl-3-azabicyclo[3.1.1]heptan-6-yl)methyl]-8-fluoro-3,4-dihydro-1H-isoquinoline-6-carbohydroxamic acid] | 1000 to 10000 | 1 to 100 | III (III: >10-100) |
| CC(=O)N1CCCCC12CC(N1CCc3cc(C(=O)NO)cc(F)c3C1)C2 (centres unmarked) [Compound 355, 2-(5-acetyl-5-azaspiro[3.5]nonan-2-yl)-8-fluoro-3,4-dihydro-1H-isoquinoline-6-carbohydroxamic acid] | 10000 to 100000 | 1 to 100 | V (V: >1000) |
| O=C(NO)c1ccc2c(c1)C[C@@H]1CCCN1C2 [Compound 121] | 10000 to 100000 | 100 to 1000 | III (III: >10-100) |
| CC[C@@H]1Cc2c(F)cc(C(=O)NO)cc2CN1C1CC2(CCN(C3CC3)CC2)C1 (single isomer, unassigned) [Compound 598] | 10000 to 100000 | 100 to 1000 | IV (IV: >100-1000) |
| O=C(NO)c1cc(F)c2c(c1)CCN(C[C@@H]1CCCCO1)C2 (single isomer, unassigned) [Compound 174] | 10000 to 100000 | 1 to 100 | IV (IV: >100-1000) |
| O=C(NO)c1cc(F)c2c(c1)CCN(C1CCC3(CCC3)CC1)C2 [Compound 192, 8-fluoro-2-spiro[3.5]nonan-7-yl-3,4-dihydro-1H-isoquinoline-6-carbohydroxamic acid] | 10000 to 100000 | 1 to 100 | V (V: >1000) |
| O=C(NO)c1cc(F)c2c(c1)C[C@@H]1CCCN1C2 (single isomer, unassigned) [Compound 119] | 10000 to 100000 | 100 to 1000 | III (III: >10-100) |
| CC(=O)N1CC2(C[C@H](N3CCc4cc(C(=O)NO)cc(F)c4C3)CCO2)C1 (single isomer, unassigned) [Compound 453] | 10000 to 100000 | 1 to 100 | IV (IV: >100-1000) |
| O=C(NO)c1cc(F)c2c(c1)CCN([C@@H]1CCC3(CCCC3)C1)C2 (single isomer, unassigned) [Compound 184] | 1000 to 10000 | 1 to 100 | IV (IV: >100-1000) |
| O=C(NO)c1cc(F)c2c(c1)CCN(C1CC3(CCN(C4CC4)CC3)C1)C2 [Compound 607, 2-(7-cyclopropyl-7-azaspiro[3.5]nonan-2-yl)-8-fluoro-3,4-dihydro-1H-isoquinoline-6-carbohydroxamic acid] | 10000 to 100000 | 1 to 100 | IV (IV: >100-1000) |
| O=C(NO)c1ccc2c(c1)CCN1CCC[C@H]21 [Compound 148] | 1000 to 10000 | 1000 to 10000 | II (II: >1-10) |
| O=C(NO)c1cc(F)c2c(c1)CCN([C@H]1C[C@@]3(CCCNC3)C1)C2 (single isomer, unassigned) [Compound 342, 8-fluoro-N-hydroxy-2-((2s,4r)-6-azaspiro[3.5]nonan-2-yl)-1,2,3,4-tetrahydroisoquinoline-6-carboxamide] | 1000 to 10000 | 1 to 100 | IV (IV: >100-1000) |
| O=C(NO)c1cc(F)c2c(c1)CN(C[C@@H]1CCCCO1)CC2 (single isomer, unassigned) [Compound 214] | 1000 to 10000 | 1 to 100 | III (III: >10-100) |
| CC(=O)N1CC2(C[C@@H](N3CCc4cc(C(=O)NO)cc(F)c4C3)CCO2)C1 (single isomer, unassigned) [Compound 454] | 10000 to 100000 | 1 to 100 | IV (IV: >100-1000) |
| CC[C@H]1Cc2c(F)cc(C(=O)NO)cc2CN1CC12CC3CC(CC(C3)O1)C2 (single isomer, unassigned) [Compound 510] | 1000 to 10000 | 1 to 100 | IV (IV: >100-1000) |
| O=C(NO)c1ccc2c(c1)CN1CCCC[C@H]1C2 [Compound 144] | 10000 to 100000 | 100 to 1000 | III (III: >10-100) |
| O=C(NO)c1cc(F)c2c(c1)CCN(C1CCC13CCNCC3)C2 (centres unmarked) [Compound 357, 2-(7-azaspiro[3.5]nonan-3-yl)-8-fluoro-3,4-dihydro-1H-isoquinoline-6-carbohydroxamic acid] | 1000 to 10000 | 1 to 100 | IV (IV: >100-1000) |
| O=C(NO)c1cc(F)c2c(c1)CCN(CC13CCC(CC1)C(=O)N3)C2 [Compound 461, 8-fluoro-2-[(3-oxo-2-azabicyclo[2.2.2]octan-1-yl)methyl]-3,4-dihydro-1H-isoquinoline-6-carbohydroxamic acid] | 1000 to 10000 | 1 to 100 | V (V: >1000) |
